Columns and labels:
[1] = molecular target: T1, bovine serum albumin (BSA) (Bos taurus, UniProt P02769); assay: 3H-FL118 binding, Nanosep 3K centrifugal device; conditions: negative control protein
T1 construct: purchased EMD (Billerica, MA)
Protocol: Then, 5-10 μg of the FLAGR M Purification Kit (Signa)-purified Flag-USP2a and Flag-UbE2T proteins in a volume of 20-50 μL, respectively, was transferred into the sample reservoir of a 1.5 mL Nanosep 3K Centrifugal Device. In parallel, a negative control Nanosep 3K Centrifugal Devices containing 10 μg bovine serum albumin (BSA) in 50 μL volume was also set up. Then, the 3 prepared Nanosep 3K Devices were centrifuged at 10,000 rpm for 10-15 min to eliminate the solution and retain the proteins in the sample reservoir. […] Lastly, all three of the sample reservoir devices were transferred into a scintillation vial containing enough scintillation solution to cover the entire sample reservoir devices for tritium (3H) counting on the LS 6500 Scintillation System (Backman Couler™).

[2] = test system: Agrin and its downstream targets; assay: Western blots of Agrin and downstream targets in pancreatic cancer cell lines; assay type: cell-based, human
Protocol: For frozen prostate cancer tissue specimens and their adjacent non-tumor tissues (if any) obtained from Roswell Park pathology network, 30-50 mg of each tissue in a 1.5 Eppendorf tube containing 500 μL of 2×SDS lysis buffer containing Tris pH 6.8+4% SDS+10% Glycerol were homogenized through ultrasound treatment for 10-15 second per time with 3-6 times until tumor tissue was lysed. After all tissues were processed, 1.5 mL tubes were centrifuged at 13,000 rom in a microcentrifuge for 1-2 min and then the supernatant in each tube was transferred into a new 1.5 mL tube for protein concentration measurement (refer to the section of “Studies with Human patient tumor specimens” for more information). Twenty to fifty μg total protein from each sample (cell lysis or tumor tissue lysis) were heated at 95° C. for 5 minutes after mixing with equal volumes of 2× SDS loading buffer. […] The membrane was then blocked in 5% skim milk in TBS-T buffer (20 mM Tris/HCl pH 7.5, 0.137 M NaCl, and 0.1% Tween 20) at room temperature for 2-3h. […] Proteins of interest were detected using Western Lightning ECL-Plus (Perkin Elmer, Waltham, MA) and visualized by various times (3-120 seconds) of exposure. Actin, tubulin and/or GAPDH were detected as the internal control to normalize total protein loading for each sample.

[3] = test system: pancreatic cancer PDX tumor (PDX14244) tissues; assay: Ex vivo culture of pancreatic cancer PDX tumor tissue; assay type: cell-based, human; conditions: 7 days
From the text: Pancreatic cancer patient-derived xenograft (PDX) tumor (PDX14244) in vitro culture and studies: PDX14244 tumors were collected from SCID mice, and the isolated tumors were maintained in PBS solution. Then cut the fresh tumor tissues into many small pieces (e.g., 2×2×2 mm) and the left tumors were frozen for other use. The small pieces of tumor tissues were washed twice in PBS and then added onto the stiff gel prepared at the ratio of gel: PBS=1:1 in the 24-well plate (2-3 pieces per well). […] On day 3, replace the old medium content with freshly prepared same medium content. On day 7, the cultured PDX14244 tumor tissues were taken out and representative images were taken under microscopes, and the tumor tissues were transferred into a fresh 24-well plate and immediately fixed in 10% neutral buffered formalin (NBF) for 24 hours ad then replaced NBF with 70% ethanol for 1-4 days for paraffin embedding to make block cassettes for histology analysis. Tissue blocks were cut and H&E staining for tumor tissue stroma ECM stiffness (desmoplasia) observation.

[4] = test system: p53, Mdm2, AR, AR-Vs, c-Myc, MdmX; assay: Western blot/RT-PCR of p53, Mdm2, AR, AR-Vs, c-Myc, MdmX in PCa cells; assay type: cell-based, human
Protocol: Cells were then lysed to determine the expression of AR, AR-Vs, p53, p21, Mdm2, MdmX, and c-Myc as well as PARP cleavage (apoptosis hallmark) using their corresponding antibodies by WB.
Twenty to fifty μg total protein from each sample (cell lysis or tumor tissue lysis) were heated at 95° C. for 5 minutes after mixing with equal volumes of 2× SDS loading buffer. […] Next, the membrane was incubated with different primary antibodies in TBS-T containing 5% BSA overnight at 4° C. in the range of dilutions from 1:500 to 1:2000 based on the antibody dilution recommended by antibody firms. […] Proteins of interest were detected using Western Lightning ECL-Plus (Perkin Elmer, Waltham, MA) and visualized by various times (3-120 seconds) of exposure. Actin, tubulin and/or GAPDH were detected as the internal control to normalize total protein loading for each sample.
(§1) Pertinent to this study, total RNAs were extracted from cancer cells using TRI REAGENT RT (Molecular Research Center), and 5 μg per sample was converted to cDNA with anchored oligo (dT) primers using RevertAid First Strand cDNA Synthesis Kit (Thermo Fisher Scientific, Catalog No. K1622) following the manufacturer's instructions. […] The data were analyzed using the Applied Biosystems 7300 Real Time PCR System and normalized to GAPDH.

[5] = molecular target: T2, UbE2T (Homo sapiens, UniProt Q9NPD8); assay: UbE2T protein (WB) and mRNA (RT-PCR) in PCa cells; assay type: cell-based; design: purchased Invitrogen ProtoArray Human Protein Microarray v5.0
T2 sequence (Q9NPD8 1-197): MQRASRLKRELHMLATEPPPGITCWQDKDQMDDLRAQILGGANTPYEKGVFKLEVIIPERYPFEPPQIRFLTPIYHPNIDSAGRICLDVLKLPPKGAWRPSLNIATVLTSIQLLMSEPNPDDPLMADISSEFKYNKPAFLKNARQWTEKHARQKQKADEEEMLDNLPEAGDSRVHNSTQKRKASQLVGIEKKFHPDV
Protocol: Cells were then lysed to determine UbE2T protein expression (WB) and mRNA (real-time RT-PCR).
Twenty to fifty μg total protein from each sample (cell lysis or tumor tissue lysis) were heated at 95° C. for 5 minutes after mixing with equal volumes of 2× SDS loading buffer. […] Next, the membrane was incubated with different primary antibodies in TBS-T containing 5% BSA overnight at 4° C. in the range of dilutions from 1:500 to 1:2000 based on the antibody dilution recommended by antibody firms. After washing with TBS-T, the membrane was incubated in TBS-T buffer containing 5% skim milk and corresponding secondary antibody (1:5000) for 45-60 minutes at room temperature with shaking. Proteins of interest were detected using Western Lightning ECL-Plus (Perkin Elmer, Waltham, MA) and visualized by various times (3-120 seconds) of exposure. Actin, tubulin and/or GAPDH were detected as the internal control to normalize total protein loading for each sample.
as §1

T1 sequence (P02769 25-607): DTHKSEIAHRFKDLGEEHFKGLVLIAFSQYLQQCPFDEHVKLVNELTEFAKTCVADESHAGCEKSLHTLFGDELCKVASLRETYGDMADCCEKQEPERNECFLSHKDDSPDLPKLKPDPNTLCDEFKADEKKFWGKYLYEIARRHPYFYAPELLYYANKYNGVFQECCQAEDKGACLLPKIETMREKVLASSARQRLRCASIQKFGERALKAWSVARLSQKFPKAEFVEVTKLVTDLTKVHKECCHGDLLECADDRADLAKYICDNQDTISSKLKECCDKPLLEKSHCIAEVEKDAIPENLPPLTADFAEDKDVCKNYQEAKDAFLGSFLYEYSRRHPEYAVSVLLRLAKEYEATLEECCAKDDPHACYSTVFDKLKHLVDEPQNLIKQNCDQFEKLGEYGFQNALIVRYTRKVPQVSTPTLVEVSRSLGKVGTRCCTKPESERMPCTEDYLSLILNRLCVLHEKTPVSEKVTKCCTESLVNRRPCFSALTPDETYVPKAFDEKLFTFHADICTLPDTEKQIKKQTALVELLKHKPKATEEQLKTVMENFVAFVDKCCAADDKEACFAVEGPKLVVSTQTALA

Compound: CCC1(O)C(=O)OCc2c1cc1n(c2=O)Cc2cc3cc4c(cc3nc2-1)OCO4 (stereo not drawn) [FL118]
- 3H CPM counts in retained parts [1]: 4,230 ± 370 CPM
- DDX5, Agrin, YAP1, Integrin expression and FAK phosphorylation ([2]; Mia Paca-2, Panc-1, BxPC-3, 10, 100, 500 nM): inhibits the expression of DDX5, Agrin, YAP1 and Integrin as well as the FAK phosphorylation status
- Agrin and YAP1 proteins ([2]; Panc-1 cells): inhibits Agrin and YAP1 proteins
- cell and stroma spreading from tissue edge [3]: effectively inhibit the pancreatic cancer cells and stroma spreading
- tumor stroma intensity (H&E) [3]: significantly tumor stroma intensity loose
- AR mRNA [4]: decrease AR mRNA levels
- expression of p53, Mdm2, AR, AR-Vs, MdmX, c-Myc [4]: induces the expression of p53 (p21 increase is a hallmark of p53 activation) and Mdm2 but inhibits AR, AR-Vs, MdmX, and c-Myc
- UbE2T mRNA [5]: without inhibiting its mRNA levels
- UbE2T protein [5]: inhibits UbE2T protein in a dose- and time-dependent manner

— patent US20250312469A1 (CANGET BIOTEKPHARMA, priority 2024, published 2025)
